Data published in PubChem BioAssay AID330 (DTP/NCI, 2004).
Several values for one entry are separate records, joined by “and”; a condition that tells them apart may be missing. Equal entries are not always repeated. Toxic doses and inconclusive results are not listed. How the source made its calls: active means survival T/C of 150% or more; inactive means T/C below 125% in these data.

Tested on: P388 leukemia ip, CD2F1 mice, survival T/C
Assay: NCI In Vivo Anticancer Drug Screen. Data for tumor model P388 Leukemia (intraperitoneal) in CD2F1 (CDF1) mice
Settings: endpoint: median survival time, higher = longer survival
Method in brief: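 Mice carrying the transplanted tumor received test compound or vehicle. Survival was recorded in each group, and the value is the treated-group measurement divided by that of the vehicle-treated control group.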

[1] = dose: 60.0 mg/kg/injection, schedule: Q01DX005 (ip), vehicle: saline with Tween-80
[2] = dose: 120.0 mg/kg/injection, schedule: Q01DX005 (ip), vehicle: saline with Tween-80
[3] = dose: 240.0 mg/kg/injection, schedule: Q01DX005 (ip), vehicle: saline with Tween-80
[4] = dose: 60.0 mg/kg/injection, schedule: Q01DX005 (ip), vehicle: Klucel (hydroxypropylcellulose) (HPC)
[5] = dose: 120.0 mg/kg/injection, schedule: Q01DX005 (ip), vehicle: Klucel (hydroxypropylcellulose) (HPC)
[6] = dose: 12.5 mg/kg/injection, schedule: Q01DX009 (ip), vehicle: saline
[7] = dose: 25.0 mg/kg/injection, schedule: Q01DX009 (ip), vehicle: saline
[8] = dose: 50.0 mg/kg/injection, schedule: Q01DX009 (ip), vehicle: saline
[9] = dose: 100.0 mg/kg/injection, schedule: Q01DX009 (ip), vehicle: saline
[10] = dose: 200.0 mg/kg/injection, schedule: Q01DX009 (ip), vehicle: saline
[11] = dose: 50.0 mg/kg/injection, schedule: Q01DX009 (ip), vehicle: saline with Tween-80
[12] = dose: 100.0 mg/kg/injection, schedule: Q01DX009 (ip), vehicle: saline with Tween-80
[13] = dose: 200.0 mg/kg/injection, schedule: Q01DX009 (ip), vehicle: saline with Tween-80

Measured: T/C

CCCCCCC(=O)/C=C\c1ccccc1
inactive: dose: 25.0 mg/kg/injection, schedule: Q04DX002 (ip), vehicle: saline with Tween-80 95 % of control | dose: 50.0 mg/kg/injection, schedule: Q04DX002 (ip), vehicle: saline with Tween-80 100 % of control | dose: 100.0 mg/kg/injection, schedule: Q04DX002 (ip), vehicle: saline with Tween-80 97 % of control | dose: 200.0 mg/kg/injection, schedule: Q04DX002 (ip), vehicle: saline with Tween-80 106 % of control

CC(=O)NC(C)CC1=CC(=O)C(C)=CC1=O (stereo not given)
inactive: dose: 25.0 mg/kg/injection, schedule: Q01DX001 (ip), vehicle: Klucel (hydroxypropylcellulose) (HPC) 95 % of control

CC(C)(C)c1cc(C(c2ccc3c(c2)OCO3)N2CCOCC2)c(O)c(C(C)(C)C)c1 (stereo not given)
inactive: [1] 100 % of control | [2] 100 % of control | [3] 100 % of control

CCC(=O)c1cc(-c2cc(C(=O)CC)[nH]n2)n[nH]1
inactive: [4] 98 % of control | [5] 98 % of control

CN1C(C)(C)CC(O)(C(=O)O)CC1(C)C
inactive: dose: 50.0 mg/kg/injection, schedule: Q01DX005 (ip), vehicle: saline 94 % of control | dose: 100.0 mg/kg/injection, schedule: Q01DX005 (ip), vehicle: saline 91 % of control | dose: 200.0 mg/kg/injection, schedule: Q01DX005 (ip), vehicle: saline 87 % of control

OCCN(CCO)CC(O)COc1cccc2ccccc12 (stereo not given)
inactive: [6] 98 % of control and 116 % of control | [7] 110 % of control and 96 % of control | [8] 103 % of control and 107 % of control | [9] 104 % of control and 97 % of control | [10] 110 % of control and 115 % of control

NC(CCC(=O)OCc1ccccc1)C(=O)OCc1ccccc1 (stereo not given)
inactive: dose: 50.0 mg/kg/injection, schedule: Q04DX003 (ip), vehicle: saline 100 % of control | dose: 100.0 mg/kg/injection, schedule: Q04DX003 (ip), vehicle: saline 104 % of control | dose: 200.0 mg/kg/injection, schedule: Q04DX003 (ip), vehicle: saline 100 % of control

CC(C)(C)c1ccc(OCC(COc2ccc(C(C)(C)C)cc2)(COc2ccc(C(C)(C)C)cc2)COc2ccc(C(C)(C)C)cc2)cc1
inactive: dose: 7.5 mg/kg/injection, schedule: Q01DX009 (ip), vehicle: saline with Tween-80 98 % of control | dose: 15.0 mg/kg/injection, schedule: Q01DX009 (ip), vehicle: saline with Tween-80 95 % of control | dose: 30.0 mg/kg/injection, schedule: Q01DX009 (ip), vehicle: saline with Tween-80 93 % of control

CCCCN(CCO)CC(O)Cn1cnc2c(N)ncnc21 (stereo not given)
inactive: [4] 94 % of control | [5] 87 % of control | dose: 240.0 mg/kg/injection, schedule: Q01DX005 (ip), vehicle: Klucel (hydroxypropylcellulose) (HPC) 87 % of control

CCOC(=O)C(C)(C)Oc1cccc2c1S(=O)(=O)c1ccccc1-2
inactive: [11] 95 % of control | [12] 93 % of control | [13] 100 % of control

O=[N+]([O-])c1cc2c(cc1S(=O)(=O)O)C1C(C3C2C2(Cl)C(Cl)=C(Cl)C3(Cl)C2(Cl)Cl)C2(Cl)C(Cl)=C(Cl)C1(Cl)C2(Cl)Cl (stereo not given)
inactive: [8] 101 % of control | [9] 98 % of control

CC1(C)OC(C2SCCS2)C2OC(=O)C(O[Si](C)(C)C(C)(C)C)C2O1 (stereo not given)
inactive: [1] 99 % of control | [2] 93 % of control | [3] 93 % of control

CSC(=S)NNC1=NCCCCC1
inactive: dose: 50.0 mg/kg/injection, schedule: Q01DX009 (ip), vehicle: Klucel (hydroxypropylcellulose) (HPC) 106 % of control | dose: 100.0 mg/kg/injection, schedule: Q01DX009 (ip), vehicle: Klucel (hydroxypropylcellulose) (HPC) 97 % of control | dose: 200.0 mg/kg/injection, schedule: Q01DX009 (ip), vehicle: Klucel (hydroxypropylcellulose) (HPC) 87 % of control

CC1=NN(C(=O)c2ccncc2)C(=O)C1N=Nc1ccc(S(=O)(=O)Nc2nccs2)cc1 (stereo not given)
inactive: [11] 102 % of control | [12] 97 % of control | [13] 96 % of control

COc1cccc(/C=C/c2ccnnc2)c1
inactive: [8] 96 % of control | [9] 95 % of control | [10] 95 % of control

Cc1ccc2c(c1)C1(SC(C)C(=O)N1c1ccc(F)cc1)C(=O)N2 (stereo not given)
inactive: [1] 89 % of control | [2] 90 % of control | [3] 87 % of control

c1cc(C2N3CCCN2CC3)ccn1 (stereo not given)
inactive: dose: 3.12 mg/kg/injection, schedule: Q01DX009 (ip), vehicle: saline 104 % of control | [6] 103 % of control | [7] 110 % of control

CN(C)c1cc[n+](-c2c([O-])c3ccccc3n(-c3ccccc3)c2=O)cc1
inactive: dose: 50.0 mg/kg/injection, schedule: Q01DX005 (ip), vehicle: Klucel (hydroxypropylcellulose) (HPC) 107 % of control | dose: 100.0 mg/kg/injection, schedule: Q01DX005 (ip), vehicle: Klucel (hydroxypropylcellulose) (HPC) 104 % of control | dose: 200.0 mg/kg/injection, schedule: Q01DX005 (ip), vehicle: Klucel (hydroxypropylcellulose) (HPC) 97 % of control

COc1ccc2c(c1)C[N+](C)(CCc1ccccc1)[B-]O2 (stereo not given)
inactive: dose: 50.0 mg/kg/injection, schedule: Q01DX005 (ip), vehicle: saline + Tween-80 + alcohol 91 % of control | dose: 100.0 mg/kg/injection, schedule: Q01DX005 (ip), vehicle: saline + Tween-80 + alcohol 93 % of control

CCCCN(C(=O)C(C)C)c1nc(C)co1
inactive: [11] 112 % of control | [12] 118 % of control | [13] 96 % of control

Cc1ccccc1N=Cc1ccc(N(C)C)cc1
inactive: [12] 91 % of control | [13] 87 % of control

COC(=O)C1(C)C(=O)C=CC2(C)C1CC(OC(C)=O)C1(C)C2C(=O)C(OC(C)=O)C2(C)C(c3ccoc3)CC3OC321 (stereo not given)
inactive: dose: 0.75 mg/kg/injection, schedule: Q01DX005 (ip), vehicle: Klucel (hydroxypropylcellulose) (HPC) 99 % of control | dose: 1.5 mg/kg/injection, schedule: Q01DX005 (ip), vehicle: Klucel (hydroxypropylcellulose) (HPC) 101 % of control | dose: 3.0 mg/kg/injection, schedule: Q01DX005 (ip), vehicle: Klucel (hydroxypropylcellulose) (HPC) 97 % of control | dose: 6.0 mg/kg/injection, schedule: Q01DX005 (ip), vehicle: Klucel (hydroxypropylcellulose) (HPC) 97 % of control | dose: 12.0 mg/kg/injection, schedule: Q01DX005 (ip), vehicle: Klucel (hydroxypropylcellulose) (HPC) 98 % of control

Nc1ccc(NCC2CCCN3CCCCC23)c2c(=O)c3ccccc3sc12 (stereo not given)
inactive: dose: 13.25 mg/kg/injection, schedule: Q01DX005 (ip), vehicle: saline with Tween-80 104 % of control | dose: 26.5 mg/kg/injection, schedule: Q01DX005 (ip), vehicle: saline with Tween-80 101 % of control | dose: 53.0 mg/kg/injection, schedule: Q01DX005 (ip), vehicle: saline with Tween-80 103 % of control | dose: 90.0 mg/kg/injection, schedule: Q01DX005 (ip), vehicle: saline with Tween-80 94 % of control | dose: 106.0 mg/kg/injection, schedule: Q01DX005 (ip), vehicle: saline with Tween-80 100 % of control | dose: 180.0 mg/kg/injection, schedule: Q01DX005 (ip), vehicle: saline with Tween-80 94 % of control | dose: 360.0 mg/kg/injection, schedule: Q01DX005 (ip), vehicle: saline with Tween-80 95 % of control

C/C(=N\O)C1CC2C=C(C#N)C1N(Cc1ccccc1)C2 (stereo not given)
inactive: dose: 8.75 mg/kg/injection, schedule: Q01DX005 (ip), vehicle: Klucel (hydroxypropylcellulose) (HPC) 96 % of control | dose: 17.5 mg/kg/injection, schedule: Q01DX005 (ip), vehicle: Klucel (hydroxypropylcellulose) (HPC) 93 % of control | dose: 35.0 mg/kg/injection, schedule: Q01DX005 (ip), vehicle: Klucel (hydroxypropylcellulose) (HPC) 123 % of control
